Measurements taken from PubChem BioAssay (NCI).
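Step 1: Grow cells in 96-well plates. Step 2: Expose to compound for 48 hours at 5 concentrations. Step 3: Interpolate endpoints linearly; if unreached, use highest concentration. GI50 = concentration required for 50% inhibition of growth. TGI denotes the concentration required for complete inhibition of growth.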

Assays:
Test in all cases: inhibition of tumour cell growth, NCI panel, 48 h
[1] = test system: CCRF-CEM leukemia
[2] = test system: MALME-3M melanoma
[3] = test system: NCI-H522 lung
[4] = test system: NCI-H460 lung
[5] = test system: SK-MEL-28 melanoma
[6] = test system: BT-549 breast
[7] = test system: TK-10 renal
[8] = test system: A549 NSCLC
[9] = test system: MDA-MB-435
[10] = test system: NCI/ADR-RES ovarian

SMILES	GI50 [1]	TGI [1]	GI50 [2]	TGI [2]	GI50 [3]	TGI [3]	GI50 [4]	TGI [4]	GI50 [5]	TGI [5]	GI50 [6]	TGI [6]	GI50 [7]	TGI [7]	GI50 [8]	TGI [8]	GI50 [9]	TGI [9]	GI50 [10]	TGI [10]
COc1cc2cc(Oc3ccc(NC(=O)c4cccc5c4OCCO5)cc3)c(C)nc2cc1OC	4.18 µM	> 100 µM	8.76 µM	> 100 µM	4.28 µM	45.1 µM	8.36 µM	> 100 µM	19.2 µM	> 100 µM	1.71 µM	4.42 µM	15.7 µM	> 100 µM	7.04 µM	> 100 µM	7.05 µM	> 100 µM	3.42 µM	> 100 µM
COc1ccc2[nH]c(-c3ccccc3)cc2c1	68.5 µM	> 100 µM	> 100 µM	> 100 µM	73.9 µM	> 100 µM	> 100 µM	> 100 µM	> 100 µM	> 100 µM	> 100 µM	> 100 µM	> 100 µM	> 100 µM	> 100 µM	> 100 µM	> 100 µM	> 100 µM	> 100 µM	> 100 µM
c1ccc(CC(NCCNC(Cc2ccccc2)c2ccccc2)c2ccccc2)cc1 (stereo unspecified)	0.49 µM	2.57 µM	0.339 µM	1.44 µM	0.32 µM	1.06 µM	0.294 µM	0.719 µM	1.22 µM	2.8 µM	1.26 µM	3 µM	1.46 µM	4.21 µM	1.1 µM	4.69 µM	0.817 µM	2.22 µM	0.643 µM	2.2 µM
CCCn1cnc2c(SCc3ccccc3)nc(N)nc21	72.9 µM	> 100 µM	> 100 µM	> 100 µM	> 100 µM	> 100 µM	42.2 µM	> 100 µM	> 100 µM	> 100 µM	51.9 µM	> 100 µM	80.5 µM	> 100 µM	77.8 µM	> 100 µM	> 100 µM	> 100 µM	63.2 µM	> 100 µM
COc1ccc(/C=C(/C(=O)n2cnnn2)c2cc(OC)c(OC)c(OC)c2)cc1	3.44 µM	> 100 µM	7.75 µM	> 100 µM	2.26 µM	6.67 µM	3.75 µM	> 100 µM	7.37 µM	> 100 µM	2.32 µM	7.57 µM	7.59 µM	> 100 µM	3.97 µM	> 100 µM	0.614 µM	3.24 µM	3.87 µM	> 100 µM
CC1(C)C2CCC13C(=O)C1OC3(C2)C2C(=O)c3c(O)cccc3C(=O)C12 (stereo unspecified)	0.212 µM	1.14 µM	0.29 µM	1.02 µM	3.2 µM	10.1 µM	3.75 µM	21.2 µM	3.58 µM	21.1 µM	1.2 µM	3.34 µM	0.979 µM	2.83 µM	1.24 µM	4.57 µM	0.818 µM	2.5 µM	2.1 µM	6.01 µM
O=c1[nH]c2cc(Cl)c(Cl)cc2n2cc3ccccc3c12	22.1 µM	48.9 µM	17.1 µM	32.7 µM	10.2 µM	31 µM	18.8 µM	32.8 µM	33 µM	> 100 µM	26.5 µM	57.2 µM	16.8 µM	30.4 µM	18.9 µM	34.5 µM	16.9 µM	30.5 µM	17.7 µM	31.6 µM
Cc1n(Cc2ccc3ccccc3c2)c(Cl)c(Cl)[n+]1Cc1ccc2ccccc2c1	1.96 µM	6.05 µM	1.54 µM	3.46 µM	1.52 µM	3.9 µM	1.69 µM	3.2 µM	1.68 µM	3.18 µM	1.65 µM	3.17 µM	1.79 µM	3.53 µM	5.07 µM	22 µM	1.68 µM	3.19 µM	12 µM	29.6 µM
O=C(O)Cn1ccnc1[N+](=O)[O-]		> 100 µM		> 100 µM		> 100 µM		> 100 µM		> 100 µM		> 100 µM		> 100 µM		> 100 µM		> 100 µM		> 100 µM
O=C(Nc1ccccc1O)c1ccc(CNC(=O)c2ccsc2Nc2ccnc(C(F)(F)F)c2)cc1	0.32 µM	> 100 µM	1.7 µM	6.65 µM	1.77 µM	6.86 µM	2.38 µM	11.4 µM	2.15 µM	6.79 µM	1.89 µM	5.04 µM	2.1 µM	9.33 µM	3.21 µM	12.5 µM	2.19 µM	6.54 µM	2.23 µM	8.52 µM
Cn1cnc([N+](=O)[O-])c1Sc1nc(N)nc2nc[nH]c12	3.01 µM	> 100 µM	13 µM	> 100 µM	3.56 µM	> 90.5 µM	2.25 µM	> 100 µM	> 42.5 µM	> 100 µM	5.08 µM	> 100 µM	5.75 µM	> 100 µM	13.1 µM	> 100 µM	3.31 µM	> 100 µM	2.17 µM	> 100 µM
Cn1cc(CO)c2ccccc21	> 100 µM	> 100 µM			23.4 µM	> 100 µM	30.7 µM	> 100 µM	85.9 µM	> 100 µM	53.7 µM	> 100 µM	> 100 µM	> 100 µM	64.3 µM	> 100 µM	3.45 µM	21 µM	27.1 µM	> 100 µM
COc1ccccc1/C=C\C(=O)c1ccccc1	3.28 µM	> 100 µM	12.9 µM	26.2 µM	2.39 µM	7 µM	5.75 µM	18.4 µM			11 µM	23.3 µM	12.5 µM	25.2 µM	19.5 µM	41.9 µM	4.27 µM	16.5 µM	4.38 µM	24.3 µM
